In patent publication US20030118646A1, “(R, S'),(R, R')-amphetaminil, compositions and uses thereof” (priority 2001, published 2003):

What was measured:
[1] = system: stereotyped behaviour in normal rats; assay: Induction of stereotyped behaviour in normal rats (stereotypy score 0-7); type: in vivo, Male Wistar rats; details: for Stereotypy (Peak) / Stereotypy (Total): normal rats, dose not given; for Stereotypy (Peak) / Stereotypy (Total) / Effect on stereotypy: s.c.; for Stereotypy (Peak): stereotypy score at time of peak effect; for Stereotypy (Total): total stereotypy score; for Effect on stereotypy: whole dose range tested (amphetamine 0.1-5, fusaric acid 20-80, amphetaminils 0.1-10 mg/kg), 300 min
Experimental: (§1) Male Wistar rats (n=4 per group) were randomly allocated to each drug treatment group. Drugs were administered such that, with the exception of fusaric acid, each rat in each group received all doses of the drug or vehicle in a semi random manner according to the modified Latin Square in Table 1. Compounds were administered at the doses: 0.1, 1 and 10 mg/kg s.c. in 100% DMSO (vehicle). Amphetamine was administered at 0.1, 1 and 5 mg/kg s.c. in saline (vehicle). Fusaric acid was administered at 20, 40 and 80 mg/kg s.c. in saline (vehicle). Rats received each dose of fusaric acid (20, 40 and 80 mg/kg), doses given in order, starting with vehicle. A one-week interval was provided between doses.
(§2) At the start of the experiment, rats were placed in standard perspex behaviour boxes with a visible grid on the floor to allow determination of locomotor activity. The animals were allowed to acclimatise to their environment for 1 hour prior to drug/saline administration. Following drug administration animals were returned to the behaviour cages and locomotor activity was assessed for a further 5 hours or until baseline (zero activity for 30 minutes) was achieved, whichever was sooner. Locomotor activity was assessed by videoing the rats throughout the experiment, and counting the number of times a rat crossed a grid line over a period of 5 minutes every 10 minutes. Throughout the experiment animals were scored for stereotyped behaviours for 15 seconds every 10 minutes by a trained observer using the scoring methods described in Table 2.
The mean and standard error for stereotypy activity for 15 seconds every 10 minutes for each rat at each time point was determined. […] Cumulative activity during the 300 min was also calculated, and the effect of dose of drug was analyzed by Kruskall Wallis one-way ANOVA (GraphPad Prizm). Data was also analysed for significant fit to a sigmoidal-shaped log dose-response curve using non-linear regression analysis (GraphPad Prizm)

[2] = system: locomotor activity in normal rats; assay: Locomotor activity in normal rats (grid line crossings); type: in vivo, Male Wistar rats; details: for Locomotor (Peak) / Locomotor (Total): normal rats, dose not given; for Locomotor (Peak) / Locomotor (Total) / Effect on locomotor activity: s.c.; for Locomotor (Peak): at time of peak effect; for Locomotor (Total): total (cumulative) effect; for Ratio (Peak): ratio locomotor/stereotypy at time of peak effect; for Ratio (Total): ratio locomotor/stereotypy, total effect; for Effect on locomotor activity: whole dose range tested (amphetamine 0.1-5, fusaric acid 20-80, amphetaminils 0.1-10 mg/kg), 300 min
Experimental: as §1, §2
Locomotor activity Data The mean and standard error for locomotor activity during 10 minutes for each rat at each time point was determined. […] Cumulative activity during the 300 min was also calculated, and the effect of dose of drug was analyzed by 1 way repeated measures ANOVA followed by Dunnett's test (GraphPad Prizm). Data was also analysed for significant fit to a sigmoidal-shaped log dose-response curve using non-linear regression analysis (GraphPad Prizm).

SMILES | Duration of stereotypy ([1]; 10 mg/kg s.c.) | Differences in overall stereotypy between dose groups ([1]; 0.1-10 mg/kg s.c., Kruskall Wallis) | Stereotypy (Peak) [1] | Stereotypy (Total) [1] | Effect on stereotypy [1] | Locomotor (Peak) [2] | Locomotor (Total) [2] | Ratio (Peak) [2] | Ratio (Total) [2] | Effect on locomotor activity [2] | Stereotypy compared with racemic amphetaminil ([1]; FIGS. 7 and 8) | Locomotor/stereotypy ratio compared with racemic amphetaminil ([2]; at both the time of peak effect and total effect) | Overall stereotypy during the 300 min ([1]; 5 mg/kg s.c.) | Time of maximum effect on locomotor activity after administration ([2]; 5 mg/kg s.c.) [min] | Cumulative locomotor activity during the 300 min ([2]; 5 mg/kg s.c., compared to vehicle)
CC(Cc1ccccc1)NC(C#N)c1ccccc1 (racemic) [Racemic amphetaminil, alpha-[(1-methyl-2-phenylethyl)amino]benzeneacetonitrile] | sustained for the duration of the experiment | did not reach statistical significance | 5.0 | 115 | increased stereotypy in a log dose-related manner | 37 | 560 | 7.4 | 4.9 | increased locomotor activity only at the highest dose of 10 mg/kg |  |  |  |  | 
C[C@H](Cc1ccccc1)NC(C#N)c1ccccc1 (stereo partly drawn) [(R,R′), (R,S′)-amphetaminil, alpha-[(1R-methyl-2-phenylethyl)amino]-benzeneacetonitrile] |  |  | 3.3 | 57 | tended to increase stereotypy at 10 mg/kg | 62 | 625 | 18.8 | 11 | increased locomotor activity only at the highest dose of 10 mg/kg | less stereotypy than the racemic form of amphetaminil | higher ratio |  |  | 
CC(N)Cc1ccccc1 (stereo not shown) [Amphetamine] |  |  | 5 | 81 | log dose-related increase stereotypy | 125 | 850 | 25 | 10.5 | dose-related increase in locomotor activity |  |  | tended to increase overall stereotypy | 30 | significantly increased
